Results: US20240208992A1, “MACROCYCLES AS CFTR MODULATORS” (Idorsia Pharmaceuticals Ltd, priority 2021, published 2024)
Each block holds one compound with its values, some of them ahead of it.

Biological target: human F508del-CFTR (Homo sapiens, UniProt P13569, DEL508-508)
Test: F508del-CFTR cell surface expression (corrector activity), DiscoveRx ß-galactosidase complementation chemiluminescence assay in recombinant U2OS cell line;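 also: U2OS cells co-expressing ProLink-tagged F508del-CFTR and a membrane-anchored enzyme acceptor, where more surface CFTR restores β-galactosidase activity measured by chemiluminescence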
Settings: U2OS cell line, 16h compound incubation; for EC50: EC50, F508del-CFTR cell surface expression, geomean values; for Emax: U2OS, in relation to the Emax of the corrector lumacaftor (=100%), arithmetic mean values

Sequence of human F508del-CFTR (P13569 with tags, fused parts or gaps DEL508-508): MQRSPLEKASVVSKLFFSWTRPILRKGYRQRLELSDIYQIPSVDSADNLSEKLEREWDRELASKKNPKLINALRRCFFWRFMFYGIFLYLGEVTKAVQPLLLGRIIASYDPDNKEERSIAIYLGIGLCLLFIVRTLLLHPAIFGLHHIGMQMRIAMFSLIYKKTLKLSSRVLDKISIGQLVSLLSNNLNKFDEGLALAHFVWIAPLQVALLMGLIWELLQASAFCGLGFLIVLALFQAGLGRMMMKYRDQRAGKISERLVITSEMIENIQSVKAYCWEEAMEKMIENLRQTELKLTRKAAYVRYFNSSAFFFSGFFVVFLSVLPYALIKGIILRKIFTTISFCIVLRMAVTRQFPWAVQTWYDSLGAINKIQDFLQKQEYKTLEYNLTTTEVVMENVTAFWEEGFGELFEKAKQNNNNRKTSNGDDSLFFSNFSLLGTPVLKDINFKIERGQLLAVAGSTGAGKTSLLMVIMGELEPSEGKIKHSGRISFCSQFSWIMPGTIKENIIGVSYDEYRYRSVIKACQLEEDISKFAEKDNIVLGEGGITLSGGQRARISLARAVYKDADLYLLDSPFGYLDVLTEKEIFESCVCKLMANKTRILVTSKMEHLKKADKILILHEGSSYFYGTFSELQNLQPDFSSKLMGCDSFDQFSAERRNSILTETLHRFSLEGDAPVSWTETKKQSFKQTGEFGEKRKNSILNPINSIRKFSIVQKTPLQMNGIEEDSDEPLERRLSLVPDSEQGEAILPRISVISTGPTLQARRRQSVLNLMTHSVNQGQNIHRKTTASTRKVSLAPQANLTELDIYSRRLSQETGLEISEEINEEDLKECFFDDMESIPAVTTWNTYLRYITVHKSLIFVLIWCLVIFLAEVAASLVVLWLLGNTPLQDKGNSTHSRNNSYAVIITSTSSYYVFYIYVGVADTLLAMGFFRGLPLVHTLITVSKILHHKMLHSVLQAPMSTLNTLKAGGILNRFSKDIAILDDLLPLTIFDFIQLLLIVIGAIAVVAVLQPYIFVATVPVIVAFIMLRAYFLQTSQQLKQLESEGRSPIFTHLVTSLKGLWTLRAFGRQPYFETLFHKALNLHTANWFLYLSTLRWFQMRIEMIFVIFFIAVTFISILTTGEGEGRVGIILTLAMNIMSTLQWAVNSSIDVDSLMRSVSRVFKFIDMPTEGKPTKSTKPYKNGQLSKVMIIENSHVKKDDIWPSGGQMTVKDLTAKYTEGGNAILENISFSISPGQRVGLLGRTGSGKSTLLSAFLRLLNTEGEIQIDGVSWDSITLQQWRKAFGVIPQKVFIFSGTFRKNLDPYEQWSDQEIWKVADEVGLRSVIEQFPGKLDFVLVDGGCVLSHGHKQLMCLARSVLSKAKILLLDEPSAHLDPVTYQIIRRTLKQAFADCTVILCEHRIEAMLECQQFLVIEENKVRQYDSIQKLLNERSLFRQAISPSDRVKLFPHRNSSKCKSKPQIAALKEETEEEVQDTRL

Structure (SMILES): COc1cccc(CCNC(=O)[C@@H]2CC(=O)N(C)[C@@H](CC3CCCCC3)C(=O)N(C[C@@H]3CCCCO3)CC(=O)N[C@H](Cc3ccccc3)COc3cccc(OC)c3C(=O)N2)c1 [Example 314, (3R,9S,13S)-3-benzyl-9-(cyclohexylmethyl)-16-methoxy-N-(3-methoxyphenethyl)-10-methyl-5,8,11,15-tetraoxo-7-(((S)-tetrahydro-2H-pyran-2-yl)methyl)-2,3,4,5,6,7,8,9,10,11,12,13,14,15-tetradecahydrobenzo[p][1]oxa[4,7,10,14]tetraazacycloheptadecine-13-carboxamide]
- EC50: 469 nM
- Emax: 111%

Structure (SMILES): COc1cccc(CCNC(=O)[C@@H]2CC(=O)N(C)[C@@H](CC(C)C)C(=O)N(CCC3CCCCC3)CC(=O)N[C@H](Cc3ccccc3)COc3cnc4ccccc4c3C(=O)N2)c1 [Example 315, (3S,7S,13R)-13-benzyl-9-(2-cyclohexylethyl)-7-isobutyl-N-(3-methoxyphenethyl)-6-methyl-1,5,8,11-tetraoxo-1,2,3,4,5,6,7,8,9,10,11,12,13,14-tetradecahydro-[1]oxa[4,7,10,14]tetraazacycloheptadecino[17,16-c]quinoline-3-carboxamide]
- EC50: 115 nM
- Emax: 349%

Structure (SMILES): [2H]C([2H])([2H])Oc1cccc(CCNC(=O)[C@@H]2CC(=O)N(C)[C@@H](CC(C)C)C(=O)N(CCC3CCCCC3)CC(=O)N[C@H](Cc3ccccc3)COc3cnc4ccccc4c3C(=O)N2)c1 [Example 316, (3S,7S,13R)-13-benzyl-9-(2-cyclohexylethyl)-7-isobutyl-N-(3-(methoxy-d3)phenethyl)-6-methyl-1,5,8,11-tetraoxo-1,2,3,4,5,6,7,8,9,10,11,12,13,14-tetradecahydro-[1]oxa[4,7,10,14]tetraazacycloheptadecino[17,16-c]quinoline-3-carboxamide]
- EC50: 55 nM
- Emax: 343%

Structure (SMILES): COc1cccc(CCNC(=O)[C@@H]2CC(=O)N(C)[C@@H](CC(C)C)C(=O)N(C)CC(=O)N[C@H](Cc3ccccc3)COc3cccc(OC(F)(F)F)c3C(=O)N2)c1 [Example 317, (3R,9S,13S)-3-benzyl-9-isobutyl-N-(3-methoxyphenethyl)-7,10-dimethyl-5,8,11,15-tetraoxo-16-(trifluoromethoxy)-2,3,4,5,6,7,8,9,10,11,12,13,14,15-tetradecahydrobenzo[p][1]oxa[4,7,10,14]tetraazacycloheptadecine-13-carboxamide]
- EC50: 661 nM
- Emax: 89%

Structure (SMILES): CC(C)C[C@H]1C(=O)N(C)CC(=O)N[C@H](Cc2ccccc2)COc2cnc3ccccc3c2C(=O)N[C@H](C(=O)NCCc2ccc3c(c2)OCO3)CC(=O)N1C [Example 318, (3S,7S,13R)-N-(2-(benzo[d][1,3]dioxol-5-yl)ethyl)-13-benzyl-7-isobutyl-6,9-dimethyl-1,5,8,11-tetraoxo-1,2,3,4,5,6,7,8,9,10,11,12,13,14-tetradecahydro-[1]oxa[4,7,10,14]tetraazacycloheptadecino[17,16-c]quinoline-3-carboxamide]
- EC50: 679 nM
- Emax: 295%

Structure (SMILES): COc1cccc(CCNC(=O)[C@@H]2CC(=O)N(C)[C@@H](CC(C)C)C(=O)N(C)CC(=O)N[C@H](Cc3ccccc3)COc3cnc4ccccc4c3C(=O)N2)c1 [Example 319, (3S,7S,13R)-13-benzyl-7-isobutyl-N-(3-methoxyphenethyl)-6,9-dimethyl-1,5,8,11-tetraoxo-1,2,3,4,5,6,7,8,9,10,11,12,13,14-tetradecahydro-[1]oxa[4,7,10,14]tetraazacycloheptadecino[17,16-c]quinoline-3-carboxamide]
- EC50: 574 nM
- Emax: 296%

Structure (SMILES): [2H]C([2H])([2H])Oc1cccc(CCNC(=O)[C@@H]2CC(=O)N(C)[C@@H](CC(C)C)C(=O)N(C)CC(=O)N[C@H](Cc3ccccc3)COc3cnc4ccccc4c3C(=O)N2)c1 [Example 320, (3S,7S,13R)-13-benzyl-7-isobutyl-N-(3-(methoxy-d3)phenethyl)-6,9-dimethyl-1,5,8,11-tetraoxo-1,2,3,4,5,6,7,8,9,10,11,12,13,14-tetradecahydro-[1]oxa[4,7,10,14]tetraazacycloheptadecino[17,16-c]quinoline-3-carboxamide]
- EC50: 363 nM
- Emax: 297%

Structure (SMILES): CC(C)C[C@H]1C(=O)N(C)CC(=O)N[C@H](Cc2ccccc2)COc2ccc3c(c2C(=O)N[C@H](C(=O)NCCc2ccc4c(c2)OCO4)CC(=O)N1C)OCO3 [Example 321, (8R,14S,18S)-N-(2-(benzo[d][1,3]dioxol-5-yl)ethyl)-8-benzyl-14-isobutyl-12,15-dimethyl-10,13,16,20-tetraoxo-7,8,9,10,11,12,13,14,15,16,17,18,19,20-tetradecahydro-[1,3]dioxolo[4′,5′:5,6]benzo[1,2-p][1]oxa[4,7,10,14]tetraazacycloheptadecine-18-carboxamide]
- EC50: 816 nM
- Emax: 266%

Structure (SMILES): [2H]C1([2H])Oc2ccc3c(c2O1)C(=O)N[C@H](C(=O)NCCc1ccc2c(c1)OCO2)CC(=O)N(C)[C@@H](CC(C)C)C(=O)N(C)CC(=O)N[C@H](Cc1ccccc1)CO3 [Example 322, (8R,14S,18S)-N-(2-(benzo[d][1,3]dioxol-5-yl)ethyl)-8-benzyl-14-isobutyl-12,15-dimethyl-10,13,16,20-tetraoxo-7,8,9,10,11,12,13,14,15,16,17,18,19,20-tetradecahydro-[1,3]dioxolo[4′,5′:5,6]benzo[1,2-p][1]oxa[4,7,10,14]tetraazacycloheptadecine-2,2-d2-18-carboxamide]
- EC50: 504 nM
- Emax: 197%

Structure (SMILES): COc1cccc(CCNC(=O)[C@@H]2CC(=O)N(C)[C@@H](CC(C)C)C(=O)N(C)CC(=O)N[C@H](Cc3ccccc3)COc3ccc4c(c3C(=O)N2)OCO4)c1 [Example 323, (8R,14S,18S)-8-benzyl-14-isobutyl-N-(3-methoxyphenethyl)-12,15-dimethyl-10,13,16,20-tetraoxo-7,8,9,10,11,12,13,14,15,16,17,18,19,20-tetradecahydro-[1,3]dioxolo[4′,5′:5,6]benzo[1,2-p][1]oxa[4,7,10,14]tetraazacycloheptadecine-18-carboxamide]
- EC50: 742 nM
- Emax: 258%

Structure (SMILES): [2H]C1([2H])Oc2ccc3c(c2O1)C(=O)N[C@H](C(=O)NCCc1cccc(OC)c1)CC(=O)N(C)[C@@H](CC(C)C)C(=O)N(C)CC(=O)N[C@H](Cc1ccccc1)CO3 [Example 324, (8R,14S,18S)-8-benzyl-14-isobutyl-N-(3-methoxyphenethyl)-12,15-dimethyl-10,13,16,20-tetraoxo-7,8,9,10,11,12,13,14,15,16,17,18,19,20-tetradecahydro-[1,3]dioxolo[4′,5′:5,6]benzo[1,2-p][1]oxa[4,7,10,14]tetraazacycloheptadecine-2,2-d2-18-carboxamide]
- EC50: 666 nM
- Emax: 247%

Structure (SMILES): COc1cc(CCNC(=O)[C@@H]2CC(=O)N(C)[C@@H](CC(C)C)C(=O)N3CCOC[C@@H]3C(=O)N[C@H](Cc3ccccc3)COc3ccc4ccccc4c3C(=O)N2)cc(OC)c1 [Example 325, (4aR,7R,18S,22S)-7-benzyl-N-(3,5-dimethoxyphenethyl)-22-isobutyl-21-methyl-5,16,20,23-tetraoxo-1,2,4,4a,5,6,7,8,16,17,18,19,20,21,22,23-hexadecahydronaphtho[1,2-p][1,4]oxazino[3,4-f][1]oxa[4,7,10,14]tetraazacycloheptadecine-18-carboxamide]
- EC50: 187 nM
- Emax: 237%

Structure (SMILES): CC(C)C[C@H]1C(=O)N2CCOC[C@@H]2C(=O)N[C@H](Cc2ccccc2)COc2ccc3ccccc3c2C(=O)N[C@H](C(=O)NCCc2ccc3c(c2)OCO3)CC(=O)N1C [Example 326, (4aR,7R,18S,22S)-N-(2-(benzo[d][1,3]dioxol-5-yl)ethyl)-7-benzyl-22-isobutyl-21-methyl-5,16,20,23-tetraoxo-1,2,4,4a,5,6,7,8,16,17,18,19,20,21,22,23-hexadecahydronaphtho[1,2-p][1,4]oxazino[3,4-f][1]oxa[4,7,10,14]tetraazacycloheptadecine-18-carboxamide]
- EC50: 276 nM
- Emax: 273%

- EC50: 461 nM
- Emax: 225%
Structure (SMILES): CC(C)C[C@H]1C(=O)N2CCOC[C@@H]2C(=O)N[C@H](Cc2ccccc2)COc2ccc3ccccc3c2C(=O)N[C@H](C(=O)NCCc2nc3ccccc3o2)CC(=O)N1C [Example 327, (4aR,7R,18S,22S)-N-(2-(benzo[d]oxazol-2-yl)ethyl)-7-benzyl-22-isobutyl-21-methyl-5,16,20,23-tetraoxo-1,2,4,4a,5,6,7,8,16,17,18,19,20,21,22,23-hexadecahydronaphtho[1,2-p][1,4]oxazino[3,4-f][1]oxa[4,7,10,14]tetraazacycloheptadecine-18-carboxamide]

Structure (SMILES): COc1cc(CCNC(=O)[C@@H]2CC(=O)N(C)[C@@H](CC(C)C)C(=O)N3CCCC[C@@H]3C(=O)N[C@H](Cc3ccccc3)COc3ccc4ncn(C)c4c3C(=O)N2)cc(OC)c1 [Example 328, (8S,12S,18aR,21R)-21-benzyl-N-(3,5-dimethoxyphenethyl)-12-isobutyl-5,11-dimethyl-6,10,13,19-tetraoxo-6,7,8,9,10,11,12,13,16,17,18,18a,19,20,21,22-hexadecahydro-5H,15H-imidazo[4′,5′:5,6]benzo[1,2-p]pyrido[2,1-f][1]oxa[4,7,10,14]tetraazacycloheptadecine-8-carboxamide]
- EC50: 987 nM
- Emax: 228%

Structure (SMILES): CC(C)C[C@H]1C(=O)N2CCCC[C@@H]2C(=O)N[C@H](Cc2ccccc2)COc2ccc3ncn(C)c3c2C(=O)N[C@H](C(=O)NCCc2ccc3c(c2)OCO3)CC(=O)N1C [Example 329, (8S,12S,18aR,21R)-N-(2-(benzo[d][1,3]dioxol-5-yl)ethyl)-21-benzyl-12-isobutyl-5,11-dimethyl-6,10,13,19-tetraoxo-6,7,8,9,10,11,12,13,16,17,18,18a,19,20,21,22-hexadecahydro-5H,15H-imidazo[4′,5′:5,6]benzo[1,2-p]pyrido[2,1-f][1]oxa[4,7,10,14]tetraazacycloheptadecine-8-carboxamide]
- EC50: 796 nM
- Emax: 198%
